The results in this text go back to patent US10494610B2, “Three dimensional matrix for cancer stem cells” (UNIVERSITY OF SOUTH CAROLINA, priority 2013, dated 2019).

This test deals with 4T1 cells. Description: RT-qPCR mRNA expression of CSC related markers in encapsulated cells. The format is cell-based, mouse. The following applies: for EGFR mRNA marker expression: 4T1 in peptide-conjugated gels. As for the experimental part: Total cellular RNA of the gel samples was isolated using TRIzol (Invitrogen). 250 ng of the extracted purified RNA was reverse transcribed to cDNA by SuperScript II Reverse Transcriptase (Invitrogen) with the random primers. The obtained cDNA was subjected to real time quantitative polymerase chain reaction (RT-qPCR) amplification with appropriate gene specific primers. RT-qPCR was performed to analyze the differential expression of CSC markers CD44 (4T1 and MCF7), CD24 (4T1), ABCG2 (4T1 and MCF7), and SCA1 (4T1) genes with SYBR green RealMasterMix (Eppendorf, Hamburg, Germany) using Bio-Rad iCycler PCR system (Bio-Rad, Hercules, Calif.). The expression level of GAPDH gene was used as an internal control. The primers for real time PCR were designed by Primer 3 software. The following forward and reverse primers synthesized by Integrated DNA technologies (Coralville, Iowa) were used: mouse GAPDH: forward 5′-CATGGCCTTCCGTGTTCCTA-3′ (SEQ ID NO: 1) and reverse 5′-CCTGCTTCACCACCTTCTTGA-3′ (SEQ ID NO: 2); mouse CD44: forward 5′-GAATGTAACCTGCCGCTACG-3′ (SEQ ID NO: 3) and reverse 5′-GGA GGT GTT GGA CGT GAC-3′ (SEQ ID NO: 4); mouse CD24: forward 5′-CTTCTGGCACTGCTCCTACC-3′ (SEQ ID NO: 5) and reverse 5′-GAGAGAGAGCCAGGAGACCA-3′ (SEQ ID NO: 6); mouse ABCG2: forward 5′-AGCAGCAAGGAAAGATCCAA-3′ (SEQ ID NO: 7) and reverse 5′-GGAATACCGAGGCTGATGAA-3′ (SEQ ID NO: 8); mouse SCA1: forward 5′-TGG ACA CTT CTC ACA CTA-3′ (SEQ ID NO: 9) and reverse 5′-CAGAGCAAGAGGGTCTGCAGGAG-3′ (SEQ ID NO: 10); human GAPDH forward 5′-GAGTCAACGGATTTGGTCGT-3′ (SEQ ID NO: 11) and reverse 5′-TTGATTTTGGAGGGATCTCG-3′ (SEQ ID NO: 12); human CD44 forward 5′-GGCTTTCAATAGCACCTTGC-3′ (SEQ ID NO: 13) and reverse 5′-ACACCCCTGTGTTGTTTGCT-3′ (SEQ ID NO: 14); human ABCG2 forward 5′-CACCTTATTGGCCTCAGGAA-3′ (SEQ ID NO: 15) and reverse 5′-CCTGCTTGGAAGGCTCTATG-3′ (SEQ ID NO: 16). The relative gene expression levels were quantified by the 2^-ddCT method as described. The relative gene expressions were expressed as fold difference compared with that at time zero.
Total cellular RNA of the gel samples was isolated using TRIzol (Invitrogen). 250 ng of the extracted purified RNA was reverse transcribed to cDNA by SuperScript II Reverse Transcriptase (Invitrogen) with the random primers. The obtained cDNA was subjected to real time quantitative polymerase chain reaction (RT-qPCR) amplification with the appropriate gene specific primers. RT-qPCR was performed to analyze the differential expression of CSC markers CD44, CD24, ABCG2, and SCA1 genes with SYBR green RealMasterMix (Eppendorf, Hamburg, Germany) using Bio-Rad iCycler PCR system (Bio-Rad, Hercules, Calif.). The expression level of GAPDH gene was used as an internal control. The primers for real time PCR were designed by Primer 3 software. The forward and reverse primer sequences, listed in the table below, were synthesized by Integrated DNA technologies (Coralville, Iowa). The relative gene expression levels were quantified by the 2^(−ΔΔCT) method. Briefly, ΔCT was calculated as ΔCT=CT^target gene−CT^GAPDH. ΔΔCT of the target gene was calculated as ΔΔCT=ΔCT^experimental group−ΔCT^reference group. The reference was the first time point (right after cells were encapsulated in the gel). The relative gene expression (fold-change compared to the reference time point) was calculated as 2^(−ΔΔCT).

Setting [1] is: 4T1 in PEGDA gel with peptide, 9 days.
Where [2] appears, read: 4T1 in peptide-conjugated gel, 9 days.
The mark [3] stands for this setting: 4T1 in peptide-conjugated gel, 3 days.

No end group written: not given here.

In the case of GRGDS [IBP], the “CD44 mRNA marker expression” value under setting [1] is reported as “decreased”. Moreover, where the note is “4T1 in peptide-conjugated gel”, the “expression of integrin αV” value is “significantly increased” and the “expression of integrin β3” value is on record as “significantly increased”. For the same substance, the “expression of E-Cadherin” value under setting [2] was “low expressions”. The “EGFR mRNA marker expression” value (9 days) is on record as “decreased”.

With “RLVSYNGIIFFLK [conj CD44BP] (RLVSYNGIIFFLK-NH2; also: conjugated to PEGDA gel, site not given here)”, under setting [1], the “ABCG2 mRNA marker expression” value is “decreased expressions”, the “CD24 mRNA marker expression” value is given as “increased expression”, the “CD44 mRNA marker expression” value was “decreased expressions” and the “SCA1 mRNA marker expression” value was “decreased expressions”. Moreover, the “CD44 mRNA marker expression” value (4T1 in PEGDA gel with peptide, 9 days, listed as CD44BP) is listed as “decreased”. Where the note is “4T1 in peptide-conjugated gel”, the “expression of integrin αV” value is given as “reduced” and the “expression of integrin β3” value is “reduced”. In addition, the “expression of E-Cadherin” value under setting [2] is recorded as “low expressions”. Also, where the note is “9 days”, the “EGFR mRNA marker expression” value is “decreased”.

On to WQPPRARI [FHBP], for which the “CD44 mRNA marker expression” value under setting [1] is “significantly higher”. For the same substance, where the note is “4T1 in peptide-conjugated gel”, the “expression of integrin αV” value was “reduced” and the “expression of integrin β3” value is recorded as “reduced”. For the same substance, under setting [3], the “expression of E-Cadherin” value is recorded as “decreased” and the “expression of N-Cadherin” value is given as “increased”. Further, the “expression of E-Cadherin” value under setting [2] is reported as “much higher than that in other groups”. Besides, for the setting “9 days”, the “EGFR mRNA marker expression” value is “increased”.
